Where two headings read alike, the source gives them in different places.
Experiments:
CYP2B6 = target: T1, CYP2B6 (Homo sapiens, UniProt P20813); experiment: CYP inhibition testing, human liver microsomes; format: in vitro ADME
T1 construct: along with human liver microsomes (0.5 mg/mL) and cofactors; tissue Cyprotex (performed the assay); host or cells: human liver microsomes
Method: (§1) Sangivamycin was incubated by Cyprotex with a cocktail of model CYP substrates for CYP1A2, CYP2B6, CYP2C8, CYP2C9, CYP2C19, CYP2D6, CYP3A4, and CYP3A4, along with human liver microsomes (0.5 mg/mL) and cofactors (2.5 mM NADPH and 3.3 mM MgCl2), in 0.1 M phosphate buffer (pH 7.4) for 20 minutes at 37°C. Known CYP inhibitors were used in lieu of sangivamycin as positive controls: furafylin (1A2), thioTEPA (2B6), montelukast (2C8), sulfaphenazole (2C9), nootkatone (2C19), quinidine (2D6), and ketoconazole (3A4). Formation of substrate breakdown metabolites was measured by LC-MS/MS and compared with control incubation (incubation of substrates with microsomes and cofactors but in the absence of sangivamycin or in the presence of known inhibitors). CYP inhibition was measured as a decrease in the formation of expected metabolites in the presence of sangivamycin or control inhibitor (defined as a percentage of control).

CYP2C9 = target: T2, CYP2C9 (Homo sapiens, UniProt P11712); experiment: CYP inhibition testing, human liver microsomes; format: in vitro ADME
T2 construct: along with human liver microsomes (0.5 mg/mL) and cofactors; tissue Cyprotex (performed the assay); host or cells: human liver microsomes
T2 sequence (P11712 whole entry): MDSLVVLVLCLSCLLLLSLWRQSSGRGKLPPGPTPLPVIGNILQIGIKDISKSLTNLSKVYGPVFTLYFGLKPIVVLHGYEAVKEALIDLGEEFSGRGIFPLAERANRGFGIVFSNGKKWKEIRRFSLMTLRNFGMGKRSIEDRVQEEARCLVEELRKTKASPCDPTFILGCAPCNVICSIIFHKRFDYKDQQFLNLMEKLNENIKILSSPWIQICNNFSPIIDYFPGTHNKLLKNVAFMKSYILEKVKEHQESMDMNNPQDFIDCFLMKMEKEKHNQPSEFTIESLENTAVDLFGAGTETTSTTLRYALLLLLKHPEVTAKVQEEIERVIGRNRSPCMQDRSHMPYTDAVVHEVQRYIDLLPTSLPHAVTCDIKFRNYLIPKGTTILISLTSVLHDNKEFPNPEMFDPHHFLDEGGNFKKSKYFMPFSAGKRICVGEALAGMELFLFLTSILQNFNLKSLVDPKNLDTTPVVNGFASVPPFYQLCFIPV
Method: as §1

CYP3A4 = target: T3, CYP3A4 (Homo sapiens, UniProt P08684); experiment: CYP inhibition testing, human liver microsomes; format: in vitro ADME
T3 construct: along with human liver microsomes (0.5 mg/mL) and cofactors; tissue Cyprotex (performed the assay); host or cells: human liver microsomes
T3 sequence (P08684 whole entry): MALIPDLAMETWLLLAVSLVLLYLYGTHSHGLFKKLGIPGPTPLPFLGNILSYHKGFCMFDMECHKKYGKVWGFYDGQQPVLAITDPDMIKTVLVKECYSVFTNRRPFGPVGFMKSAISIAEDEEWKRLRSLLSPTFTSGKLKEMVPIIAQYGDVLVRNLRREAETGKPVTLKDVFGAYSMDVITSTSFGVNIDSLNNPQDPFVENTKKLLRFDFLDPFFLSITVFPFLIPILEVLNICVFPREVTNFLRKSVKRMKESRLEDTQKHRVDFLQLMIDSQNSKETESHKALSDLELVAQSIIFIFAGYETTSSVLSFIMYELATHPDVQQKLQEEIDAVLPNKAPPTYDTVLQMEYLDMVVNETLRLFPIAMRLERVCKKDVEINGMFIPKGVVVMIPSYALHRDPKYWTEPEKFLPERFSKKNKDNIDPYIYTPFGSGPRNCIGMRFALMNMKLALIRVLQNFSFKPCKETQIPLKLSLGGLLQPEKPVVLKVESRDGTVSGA
Method: as §1

CYP2D6 = target: T4, CYP2D6 (Homo sapiens, UniProt P10635); experiment: CYP inhibition testing, human liver microsomes; format: in vitro ADME
T4 construct: along with human liver microsomes (0.5 mg/mL) and cofactors; tissue Cyprotex (performed the assay); host or cells: human liver microsomes
T4 sequence (P10635 whole entry): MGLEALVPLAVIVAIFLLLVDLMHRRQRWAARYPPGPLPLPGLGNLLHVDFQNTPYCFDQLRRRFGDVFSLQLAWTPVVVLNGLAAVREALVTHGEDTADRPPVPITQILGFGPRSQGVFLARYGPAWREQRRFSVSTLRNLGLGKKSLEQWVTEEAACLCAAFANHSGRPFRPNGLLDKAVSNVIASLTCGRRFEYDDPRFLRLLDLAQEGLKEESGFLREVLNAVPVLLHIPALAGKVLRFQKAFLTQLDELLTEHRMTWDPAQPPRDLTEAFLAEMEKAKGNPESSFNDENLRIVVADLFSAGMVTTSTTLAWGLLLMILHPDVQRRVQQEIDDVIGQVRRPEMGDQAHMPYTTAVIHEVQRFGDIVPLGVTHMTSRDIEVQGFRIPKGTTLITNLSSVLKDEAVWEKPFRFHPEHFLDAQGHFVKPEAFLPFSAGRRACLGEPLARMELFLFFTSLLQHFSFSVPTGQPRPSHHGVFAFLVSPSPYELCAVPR
Method: as §1

CYP2C19 = target: T5, CYP2C19 (Homo sapiens, UniProt P33261); experiment: CYP inhibition testing, human liver microsomes; format: in vitro ADME
T5 construct: along with human liver microsomes (0.5 mg/mL) and cofactors; tissue Cyprotex (performed the assay); host or cells: human liver microsomes
T5 sequence (P33261 whole entry): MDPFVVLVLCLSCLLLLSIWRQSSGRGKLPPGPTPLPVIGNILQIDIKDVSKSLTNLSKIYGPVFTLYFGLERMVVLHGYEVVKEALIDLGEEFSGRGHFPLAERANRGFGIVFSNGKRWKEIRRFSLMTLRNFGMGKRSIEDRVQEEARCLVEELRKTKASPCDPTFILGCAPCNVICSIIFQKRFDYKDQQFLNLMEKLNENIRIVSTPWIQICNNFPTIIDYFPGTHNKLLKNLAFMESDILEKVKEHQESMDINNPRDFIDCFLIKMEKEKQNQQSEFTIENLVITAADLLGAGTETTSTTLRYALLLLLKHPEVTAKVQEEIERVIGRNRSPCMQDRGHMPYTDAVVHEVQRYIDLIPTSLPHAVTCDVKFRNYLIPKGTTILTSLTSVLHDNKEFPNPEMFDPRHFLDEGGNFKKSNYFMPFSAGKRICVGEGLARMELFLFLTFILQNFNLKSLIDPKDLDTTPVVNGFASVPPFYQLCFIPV
Method: as §1

CYP1A2 = target: T6, CYP1A2 (Homo sapiens, UniProt P05177); experiment: CYP inhibition testing, human liver microsomes; format: in vitro ADME
T6 construct: along with human liver microsomes (0.5 mg/mL) and cofactors; tissue Cyprotex (performed the assay); host or cells: human liver microsomes
T6 sequence (P05177 whole entry): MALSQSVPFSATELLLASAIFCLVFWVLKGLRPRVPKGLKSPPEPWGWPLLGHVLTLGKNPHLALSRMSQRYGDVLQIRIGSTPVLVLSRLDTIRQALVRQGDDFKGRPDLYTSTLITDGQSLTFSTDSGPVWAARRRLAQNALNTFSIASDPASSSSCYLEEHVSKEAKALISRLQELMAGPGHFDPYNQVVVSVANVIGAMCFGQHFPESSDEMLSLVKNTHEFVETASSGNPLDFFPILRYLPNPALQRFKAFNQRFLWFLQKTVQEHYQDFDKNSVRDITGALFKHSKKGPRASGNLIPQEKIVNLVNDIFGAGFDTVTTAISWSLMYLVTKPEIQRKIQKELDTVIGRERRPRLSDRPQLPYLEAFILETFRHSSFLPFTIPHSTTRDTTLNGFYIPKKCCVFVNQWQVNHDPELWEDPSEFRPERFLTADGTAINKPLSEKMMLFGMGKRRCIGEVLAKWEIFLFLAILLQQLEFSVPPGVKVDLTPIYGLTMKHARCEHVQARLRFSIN
Method: as §1

CYP2C8 = target: T7, CYP2C8 (Homo sapiens, UniProt P10632); experiment: CYP inhibition testing, human liver microsomes; format: in vitro ADME
T7 construct: along with human liver microsomes (0.5 mg/mL) and cofactors; tissue Cyprotex (performed the assay); host or cells: human liver microsomes
T7 sequence (P10632 whole entry): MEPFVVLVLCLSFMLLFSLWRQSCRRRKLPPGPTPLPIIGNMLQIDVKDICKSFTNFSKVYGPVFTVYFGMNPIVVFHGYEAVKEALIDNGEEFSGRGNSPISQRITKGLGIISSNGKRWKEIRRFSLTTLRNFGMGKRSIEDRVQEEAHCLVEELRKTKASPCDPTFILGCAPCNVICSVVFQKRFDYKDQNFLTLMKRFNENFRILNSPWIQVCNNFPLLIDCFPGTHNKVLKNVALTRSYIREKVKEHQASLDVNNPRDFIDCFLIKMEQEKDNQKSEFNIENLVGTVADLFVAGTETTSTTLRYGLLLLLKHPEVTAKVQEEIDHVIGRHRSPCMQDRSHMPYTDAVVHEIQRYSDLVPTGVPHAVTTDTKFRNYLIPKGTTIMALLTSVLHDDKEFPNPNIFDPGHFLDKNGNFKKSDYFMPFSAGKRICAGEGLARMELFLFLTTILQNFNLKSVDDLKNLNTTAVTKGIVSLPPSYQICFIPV
Method: as §1

SARS-CoV-2 = experiment: Combinatorial sangivamycin/remdesivir efficacy testing, Vero E6 cells; format: cell-based; settings: read-out: IC50 (nM), S:R by [Sangivamycin]
[1] = test system: Lassa virus, Ebola virus, Marburg virus, cowpox virus and vaccinia virus; settings: Vero E6 and Huh-7 cells; cited from earlier work
A549 cells = experiment: Phospholipidosis imaging (NBD-PE fluorescence); settings: 24 h, sangivamycin up to 5 μM, melperone 10 μM, amiodarone positive control
[2] = test system: SARS-CoV-2 B.1.1.7 (Alpha); experiment: microbe, parasite or virus in culture; format: cell-based
[3] = test system: SARS-CoV-2 B.1.427 (Epsilon); experiment: microbe, parasite or virus in culture; format: cell-based
SARS-CoV-2 WA1 = experiment: microbe, parasite or virus in culture; format: cell-based
[4] = test system: Ebola virus RNA-directed RNA polymerase (RdRp) activity; settings: in vitro; cited from earlier work
[5] = 24-hour plasma pharmacokinetics in CD-1 laboratory mice; format: in vivo, mouse; settings: for apparent volume of distribution / total clearance / area under the curve to the last time point / Cmax: CD-1 mice, i.p. 60 mg/kg; for area under the curve to the last time point: 24 h; for Cmax: mouse, plasma, ip
Method: We next evaluated the 24-hour pharmacokinetics (PK) of sangivamycin in CD-1 laboratory mouse plasma. Sangivamycin’s plasma concentrations increased following i.p. injection of 60 mg/kg to a peak at 2 hours, then decreased over 6 or 8 hours, and remained virtually unchanged up to 24 hours after dosing. […] Graphing plasma concentration versus time produced an area under the curve to the last time point with values of 632 ± 66.6 h•ng/mL for males and 833 ± 53.9 h•ng/mL for females. […] Our data corroborate historical PK studies in mice with ^3H-labeled sangivamycin performed at the NCI in 1974 ([20]). In these studies, free nucleoside and mono-, di-, and triphosphate forms of sangivamycin were detected in blood, urine, and multiple tissues (e.g., heart, liver, brain, spleen, and kidneys) following i.p. injection of 8 mg/kg. The studies established that sangivamycin was phosphorylated after transportation into cells. In liver, heart, and brain, the predominant form of sangivamycin was sangivamycin 5′-monophosphate (SMP). […] Therefore, we determined the level of SMP in blood in our PK study using a published liquid chromatography–tandem mass spectrometry (LC-MS/MS) method with a lower limit of quantification of 1 ng/mL ([33]). Using this method, we detected SMP in the plasma of dosed mice but not control mice (Supplemental Figure 9B). The apparent levels of SMP increased in blood during the 24 hours of this study. There also was possible presence of a diphosphate metabolite of sangivamycin, but it was detected only in the plasma samples taken 24 hours after dosing.

[6] = test system: SARS-CoV-2 B.1.427 (Epsilon); experiment: microbe, parasite or virus in culture; format: cell-based; remark: listed apart in the source
SARS-CoV-2 P.1 (Gamma) = experiment: microbe, parasite or virus in culture; format: cell-based
[7] = CellTiter-Glo cell viability assay; format: cell-based; settings: human, HepG2 cells; HepG2, 72 h
multiple cell types = experiment: CellTox Green Cytotoxicity Assay, average of 6 cell types; settings: average ± SEM, n = 6 cell lines
grivets = settings: 10 days at 1.6 mg/kg/d and 28 days at 0.4 mg/kg/d; cited from earlier work
[8] = Severe acute respiratory syndrome coronavirus 2, Calu-3, 24 h
[9] = Severe acute respiratory syndrome coronavirus 2, Vero C1008, 24 h

T1 sequence (P20813 whole entry): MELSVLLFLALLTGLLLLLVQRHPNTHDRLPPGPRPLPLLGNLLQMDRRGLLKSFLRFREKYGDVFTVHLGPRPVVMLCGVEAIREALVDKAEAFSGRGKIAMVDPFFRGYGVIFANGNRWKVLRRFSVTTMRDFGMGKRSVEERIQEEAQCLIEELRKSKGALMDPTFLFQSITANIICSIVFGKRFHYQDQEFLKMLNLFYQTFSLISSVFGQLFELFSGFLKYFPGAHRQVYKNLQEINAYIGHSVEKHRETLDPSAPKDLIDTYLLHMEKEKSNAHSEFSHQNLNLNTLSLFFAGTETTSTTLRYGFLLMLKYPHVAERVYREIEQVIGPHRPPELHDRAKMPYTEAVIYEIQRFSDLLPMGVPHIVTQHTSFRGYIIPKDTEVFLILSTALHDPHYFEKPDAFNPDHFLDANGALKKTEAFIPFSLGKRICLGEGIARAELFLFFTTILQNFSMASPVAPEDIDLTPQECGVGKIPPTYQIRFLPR

Structure (SMILES): NC(=O)c1cn([C@@H]2O[C@H](CO)[C@@H](O)[C@H]2O)c2ncnc(N)c12 [Sangivamycin, sangivamycin]
- IC50 (CYP2B6): > 100000 nM
- IC50 (CYP2C9): > 100000 nM
- IC50 (CYP3A4): > 100000 nM
- IC50 (CYP2D6): > 100000 nM
- IC50 (CYP2C19): > 100000 nM
- IC50 (CYP1A2): > 100000 nM
- IC50 (CYP2C8): > 100000 nM
- IC50 (SARS-CoV-2; Severe acute respiratory syndrome coronavirus 2, Vero C1008): 34 nM
- IC50 (SARS-CoV-2; listed as S:R 1:0): 34.3 nM
- IC50 [1]: nanomolar range
- NBD-PE fluorescence (phospholipidosis) (A549 cells): no significant NBD-PE fluorescence above the DMSO control baseline
- SI (selectivity index, CC50/IC50) ([2]; B.1.1.7 (Alpha), Calu-3 cells): >10.1
- IC50 [2, 8]: 59.1 nM
- IC90 [2, 8]: 522 nM
- SI (selectivity index, CC50/IC50) ([3]; B.1.427 (Epsilon), Calu-3 cells): >7.3
- IC50 [3, 8]: 82.2 nM
- IC90 [3, 8]: 341 nM
- IC90 (SARS-CoV-2 WA1; Severe acute respiratory syndrome coronavirus 2, Vero C1008, 48 h): 64 ± 3 nM
- IC50 (SARS-CoV-2 WA1; Severe acute respiratory syndrome coronavirus 2, Vero C1008, 48 h, read-out: IC50): 34 ± 1 nM
- IC50 (SARS-CoV-2 WA1; Severe acute respiratory syndrome coronavirus 2, Vero C1008, read-out: average IC50): 52 ± 13 nM
- SI (selectivity index, CC50/IC50) (SARS-CoV-2 WA1; WA1, Vero E6 cells): 14.4
- effect of remdesivir and sangivamycin combined [4]: additive effect
- apparent volume of distribution ([5]; females): 167,000 mL/kg
- total clearance ([5]; females): 68,500 mL/h/kg
- area under the curve to the last time point ([5]; females): 833 ± 53.9 ng·h/mL
- apparent volume of distribution ([5]; males): 369,000 mL/kg
- total clearance ([5]; males): 85,400 mL/h/kg
- area under the curve to the last time point ([5]; males): 632 ± 66.6 ng·h/mL
- Cmax ([5]; female, females (285 ng/mL), read-out: Cmax, molar equivalent): 922 nM
- Cmax ([5]; female, females, read-out: Cmax of the plasma): 285 ± 35.9 ng/mL
- Cmax ([5]; male, males (97.3 ng/mL), read-out: Cmax, molar equivalent): 314 nM
- Cmax ([5]; male, males, read-out: Cmax of the plasma): 97.3 ± 31 ng/mL
- Cmax relative to the average IC90 in the 3 cell lines tested ([5]; mouse plasma Cmax 314 nM and 922 nM): 3- to 9 fold
- SI (selectivity index, CC50/IC50) ([6]; B.1.427 (Epsilon), Vero E6 cells): >32.3
- IC50 [6, 9]: 18.6 nM
- IC90 [6, 9]: 212 nM
- SI (selectivity index, CC50/IC50) (SARS-CoV-2 P.1 (Gamma); P.1 (Gamma), Calu-3 cells): >9.5
- IC50 (SARS-CoV-2 P.1 (Gamma); [8]): 63.3 nM
- IC90 (SARS-CoV-2 P.1 (Gamma); [8]): 204 nM
- CC50 at 72 h [7]: 1770 nM
- Ratio CellTox Green/CellTiter-Glo, Average (multiple cell types): >12.2 ± 3.78
- CC50 (in vitro): > 5000 nM
- tolerability (grivets): tolerated
